In ChEMBL document CHEMBL1201862, “PubChem BioAssay data set” (2004):
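All cell lines were grown in 96-well plates and treated with compound for 48 hours. GI50 marks 50% less growth.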 The source made the active and inactive calls. Rule as the data show it: active = GI50 up to about 1.1 µM and inactive = higher.

Experiments:
Assay in all cases: NCI-60 cell line screen, 48 h
OVCAR-4 = test system: OVCAR-4
786-0 = test system: 786-0
NCI-H226 = test system: NCI-H226
HCT-15 = test system: HCT-15
TK-10 = test system: TK-10
HOP-62 = test system: HOP-62
SF-268 = test system: SF-268
XF498 = test system: XF498
RPMI-8226 = test system: RPMI-8226
SW-620 = test system: SW-620
HCC 2998 = test system: HCC 2998
COLO 205 = test system: COLO 205
UACC-257 = test system: UACC-257
HOP-92 = test system: HOP-92
SNB-75 = test system: SNB-75
Hs-578T = test system: Hs-578T
MDA-MB-435 = test system: MDA-MB-435
PC-3 = test system: PC-3
BT-549 = test system: BT-549
DU-145 = test system: DU-145

Compound | GI50 (OVCAR-4) | GI50 (786-0) | GI50 (NCI-H226) | GI50 (HCT-15) | GI50 (TK-10) | GI50 (HOP-62) | GI50 (SF-268) | GI50 (XF498) | GI50 (RPMI-8226) | GI50 (SW-620) | GI50 (HCC 2998) | GI50 (COLO 205) | GI50 (UACC-257) | GI50 (HOP-92) | GI50 (SNB-75) | GI50 (Hs-578T) | GI50 (MDA-MB-435) | GI50 (PC-3) | GI50 (BT-549) | GI50 (DU-145)
O=C1C2Cc3ccccc3CN2C(=O)N1CN1CCCCC1 (stereo not given) | > 100 µM (inactive) | > 100 µM (inactive) | > 100 µM (inactive) | 43.6 µM | > 100 µM (inactive) | > 100 µM (inactive) | > 100 µM (inactive) | > 100 µM (inactive) | 31.1 µM (inactive) | 55.6 µM (inactive) | > 100 µM (inactive) | > 100 µM (inactive) |  |  |  |  |  |  |  | 
COC(=O)C1CCC(=O)N1/C(C)=N/NC(=O)Nc1ccc(Cl)c(Cl)c1 (stereo not given) | > 100 µM (inactive) | > 100 µM (inactive) |  | 14.4 µM | 88.1 µM (inactive) | > 100 µM (inactive) | 69.5 µM (inactive) | > 100 µM (inactive) | > 100 µM (inactive) | > 100 µM (inactive) | > 100 µM (inactive) | > 100 µM (inactive) | > 100 µM (inactive) | > 100 µM (inactive) | 65.3 µM (inactive) |  |  |  |  | 
O=C(CC1(O)C(=O)Nc2ccccc21)c1ccccc1O (stereo not given) | > 100 µM (inactive) | > 100 µM (inactive) | > 100 µM (inactive) | > 100 µM | > 100 µM (inactive) | > 100 µM (inactive) | > 100 µM (inactive) | > 100 µM (inactive) | > 100 µM (inactive) | > 100 µM (inactive) |  | > 100 µM (inactive) | > 100 µM (inactive) | > 100 µM (inactive) | > 100 µM (inactive) |  |  |  |  | 
COc1ccc(C)cc1-c1cc(Sc2ccccc2)c(-c2cc(C)ccc2OC)o1 | > 31.6 µM (inactive) | > 31.6 µM (inactive) | > 31.6 µM (inactive) | > 31.6 µM | > 31.6 µM (inactive) | > 31.6 µM (inactive) | > 31.6 µM (inactive) | > 100 µM (inactive) | > 31.6 µM (inactive) | > 29.6 µM (inactive) | > 31.6 µM (inactive) | > 31.6 µM (inactive) | > 31.6 µM (inactive) | > 31.6 µM (inactive) | > 31.6 µM (inactive) |  |  |  |  | 
N#C/C(=C\c1cccc(O)c1O)C(N)=O | 62.4 µM (inactive) | 33.3 µM (inactive) | 25.3 µM (inactive) | 57.8 µM | 42.1 µM (inactive) | 68.9 µM (inactive) | 37.9 µM (inactive) | 31.4 µM (inactive) | 18.3 µM (inactive) | 50.2 µM (inactive) | 20.3 µM (inactive) | 21.5 µM (inactive) | 39.5 µM (inactive) | 41.3 µM (inactive) | 9.57 µM (inactive) |  |  |  |  | 
O=C(OCc1ccccc1)N1N=NC2C1C1CC(OCc3ccccc3)(OCc3ccccc3)C2O1 (stereo not given) | > 100 µM (inactive) | > 100 µM (inactive) | > 100 µM (inactive) | > 100 µM |  | > 100 µM (inactive) | > 100 µM (inactive) | > 100 µM (inactive) | > 100 µM (inactive) | > 100 µM (inactive) | > 100 µM (inactive) | > 100 µM (inactive) | > 100 µM (inactive) | > 100 µM (inactive) | > 100 µM (inactive) |  |  |  |  | 
Cc1nc2c(n1C(C)(C)C)C(=O)c1ccccc1C2=O | 92.9 µM (inactive) | > 100 µM (inactive) | 67.9 µM (inactive) | 56.6 µM | 82 µM (inactive) | > 100 µM (inactive) | 54.5 µM (inactive) | 44 µM (inactive) |  | > 100 µM (inactive) | > 100 µM (inactive) | 64.1 µM (inactive) | 42.6 µM (inactive) | 9.31 µM (inactive) | 31.9 µM (inactive) |  |  |  |  | 
COc1cc2cccc(/N=C/c3c(Br)ccc(OC)c3OC(C)C)c2cc1OC | 33 µM (inactive) | 26.5 µM (inactive) |  |  | 70.8 µM (inactive) | 53.2 µM (inactive) | 36 µM (inactive) | 56.9 µM (inactive) | 22.1 µM (inactive) | 32.4 µM (inactive) | 65.3 µM (inactive) | > 100 µM (inactive) | 35.2 µM (inactive) |  | 24.4 µM (inactive) |  |  |  |  | 
CC1(Sc2ccccc2)CN(Cc2ccccc2)C1=O (stereo not given) | 88.5 µM (inactive) | > 100 µM (inactive) | > 100 µM (inactive) | 75.2 µM | > 100 µM (inactive) | > 100 µM (inactive) | > 100 µM (inactive) | 39.5 µM (inactive) | 57.3 µM (inactive) | > 100 µM (inactive) | > 100 µM (inactive) | > 100 µM (inactive) | 54.5 µM (inactive) | 20.5 µM (inactive) | 39.6 µM (inactive) |  |  |  |  | 
O=C1c2nc3n(c2C(=O)c2c1nc1n2CCC1)CCC3 | 4.71 µM (inactive) | 5.25 µM (inactive) | 6.97 µM (inactive) | 5.79 µM | 27.6 µM (inactive) | 4.62 µM (inactive) | 8.28 µM (inactive) | 6.38 µM (inactive) | 15.1 µM (inactive) | 5.13 µM (inactive) | 8.22 µM (inactive) | 5.89 µM (inactive) | 2.2 µM (inactive) | 13.1 µM (inactive) | 15.2 µM (inactive) | > 10 µM (inactive) | 2.02 µM (inactive) | > 10 µM (inactive) | > 10 µM (inactive) | > 10 µM (inactive)
NC(=O)C12CC3CC(CC(Br)(C3)C1)C2 | > 100 µM (inactive) | > 100 µM (inactive) |  | > 100 µM | > 100 µM (inactive) | > 100 µM (inactive) | > 100 µM (inactive) | > 100 µM (inactive) | > 100 µM (inactive) | > 100 µM (inactive) | > 100 µM (inactive) |  | > 100 µM (inactive) | > 100 µM (inactive) | 76.7 µM (inactive) |  |  |  |  | 
CC1=CC(C)(c2c[nH]c3ccccc23)CC(C)(C)c2c1[nH]c1ccccc21 (stereo not given) | 13.4 µM (inactive) | 13.8 µM (inactive) | 18.6 µM (inactive) |  | 43.1 µM (inactive) | 22.8 µM (inactive) | 25.1 µM (inactive) | 20.6 µM (inactive) | 11.9 µM (inactive) | 16.9 µM (inactive) | 14.5 µM (inactive) |  | 20.3 µM (inactive) |  | 26.7 µM (inactive) |  |  |  |  | 
Cc1cc(N(CCC#N)CCC#N)ccc1/C=N\c1ccc(C(=O)NN2C(=O)/C(=C/c3ccc(N(CCC#N)CCC#N)cc3)N=C2c2cc([N+](=O)[O-])ccc2Cl)cc1 | > 100 µM (inactive) | > 100 µM (inactive) | > 100 µM (inactive) | 51.8 µM | > 100 µM (inactive) | 95.1 µM (inactive) | > 100 µM (inactive) | 61.9 µM (inactive) | > 100 µM (inactive) | > 100 µM (inactive) | > 100 µM (inactive) | > 100 µM (inactive) | > 100 µM (inactive) | > 100 µM (inactive) | > 100 µM (inactive) |  |  |  |  | 
O=C(O)c1ccccc1C(=O)c1ccco1 | > 100 µM (inactive) | > 100 µM (inactive) | > 100 µM (inactive) | > 100 µM | > 100 µM (inactive) | > 100 µM (inactive) | > 100 µM (inactive) | > 100 µM (inactive) |  | > 100 µM (inactive) | > 100 µM (inactive) | > 100 µM (inactive) | > 100 µM (inactive) | > 100 µM (inactive) | > 100 µM (inactive) |  |  |  |  | 
COc1ccc(/C=C(\NC(=O)c2ccccc2)c2nc3ccccc3[nH]2)cc1 | 17.3 µM (inactive) | 44 µM (inactive) | 72.9 µM (inactive) | 48.2 µM |  | 46.2 µM (inactive) | 37 µM (inactive) | 18.5 µM (inactive) | 18.9 µM (inactive) | 46.6 µM (inactive) | 41.9 µM (inactive) | 24 µM (inactive) | 23.8 µM (inactive) | 26.9 µM (inactive) | 29.4 µM (inactive) |  |  |  |  | 
C[C@]12CC/C(=N\OC(=O)Nc3ccccc3)C=C1CC[C@@H]1C2CC[C@@]2(C)C1CC[C@@H]2OC(=O)Nc1ccccc1 (stereo not given in full) | > 100 µM (inactive) | > 100 µM (inactive) |  | 3.3 µM | > 100 µM (inactive) |  | > 100 µM (inactive) | 13.4 µM (inactive) | 15.4 µM (inactive) | > 100 µM (inactive) | > 100 µM (inactive) | > 100 µM (inactive) |  | > 100 µM (inactive) | 31.5 µM (inactive) |  |  |  |  | 
